The source of these data is US12648939B2, “Compounds and methods for treating spasticity” (Lexicon Pharmaceuticals, Inc., priority 2022, dated 2026).

In test [1] the test system is rat model of spasticity induced by complete spinal cord transection. Put plainly: Muscle spasms evoked by tibial nerve stimulation in chronic SCI rats. It is filed as in vivo. To be noted: for duration of action (muscle spasms): recordings up to 6 hours. On the procedure: The efficacy of Compound 1 was measured in a rat model of spasticity induced by complete spinal cord transection. To induce muscle spasticity, a model of complete spinal cord transection cord at the eighth thoracic (T8) vertebral level was used. Five weeks after the Spinal Cord Injury (SCI), the rats were orally (P.O.) treated with Compound 1 (3, 10, or 30 mg/kg), Baclofen (4.5 mg/kg). Tizanidine (3 mg/kg) or vehicles alone (0.9% NaCl, Compound 1 vehicle), and the degree of spasticity response was measured using the rate-dependent depression (RDD) of the Hoffmann's reflex (H-reflex) and spasms induction.
Materials and Methods. […] One hundred and fifty-one SCI rats were maintained up to the end of the 5th post-injury week. One hundred and forty rats were submitted to P.O. administration of the test compounds and EMG analysis.
The rat was firmly restrained to immobilize the head. In an upright position, the gavage needle was passed along the side of the mouth. Following the roof of the mouth, the needle was advanced into the esophagus and toward the stomach. After the needle is passed to the correct length, the compound was slowly injected. The rats were randomly assigned to one of the test groups:
Electroneuromyographical recordings were performed in the right hind limbs before and 1, 2, 3, 4, 5 and 6 hours after P.O. administration.
Electromyographical (EMG) signals were amplified (100×) and bandpass filtered (300 Hz to 5 kHz; A-M Systems Amplifier. Everett, Washington; model 1700) before sampling at 13.5 kHz (Digidata 1440A, Molecular Devices). The tibial nerve was stimulated by using square pulses with increasing stimulus intensities (0.2 mA increments starting from 0.2 mA, 0.2 Hz, 0.2 ms; A-M systems stimulator, Model 2100) to obtain recruitment curves.
Muscles spasms: In awake chronic SCI rats, muscle spasms were evoked with stimulation of the tibial nerve while performing electromyographic (EMG) recordings from the flexor digitorum brevis (FDB) muscle. Spastic spinal rats were handled nine days before the experiment and progressively habituated to be individually constrained in a plexiglass tube and to immobilization of their paralyzed hindlimbs with tape. • 1. Hmax and Mmax determination: the tibial nerve was stimulated for 0.2 ms at 0.2 Hz with increasing current intensities (1-6 mA in 0.2 mA increments) until Mmax was stabilized. • 2. A supramaximal single-pulse stimulation to elicit muscle spasms was fixed throughout the experiment (2 or 3 times the threshold intensity for M-wave) and evoked 5 times, with 60 s interstimulus intervals. EMG were rectified and averaged over 2000 ms interval post-stimulus to quantify spasms (Clamplit 8.0, Axon Instruments).
Data analysis: H-reflex RDDs and areas under the curves (AUC) were determined as a measurement of spasticity and analyzed at each time point and for each frequency with Mann-Whitney test or with Kruskal Wallis one-way analysis of variance (ANOVA) test, followed by Dunn's multiple comparisons test. P<0.05 was considered significant. Significant differences were marked with asterisks (*) according to their respective P-values: values were expressed as the mean value±standard error of the mean (SEM) in all graphs. All statistical analyses were performed using GraphPad Prism 7 (San Diego, California, USA).
Modulation of Muscle Spasms. When the tibial nerve was stimulated in acutely (1 week after injury) injured rats, little reflexes were evoked in the FDB muscle (FIG. 8A), regardless of the stimulation intensity. In contrast, stimulation of the tibial nerve in chronic (5 weeks after injury) SCI rats produced more (P<0.0001; Mann-Whitney test; FIG. 8C) long-lasting muscle contractions (FIG. 8B). This effect is a reliable correlate of the development of spasticity. In spastic rats, spasms were induced through the FDB muscle after electrical stimulation of the tibial nerve. […]

The subject of test [2] is myelin oligodendrocyte glycoprotein (MOG)-induced murine model of experimental autoimmune encephalomyelitis (EAE). Put plainly: Electrophysiology (EMG, transcranial motor-evoked potentials) in EAE model. It is filed as in vivo, C57BL/6J mice. To be noted: for latency: vehicle 6.94±0.59 ms; for peak-to-peak (P2P) amplitude: vehicle 7681.17±1505.12 μV; for rate of fibrillation (EMG): Day 21, vehicle printed 1.11±4.69 Hz. On the procedure: (§1) The effect of Compound 1 on spasticity was evaluated in a myelin oligodendrocyte glycoprotein (MOG)-induced murine model of experimental autoimmune encephalomyelitis (EAE), a central nervous system (CNS) autoimmune demyelinating disease that mimics many of the clinical and pathologic features of multiple sclerosis. Gilgun-Sherki Y., et al., Neurosciences Research 47:201-207, 2003.
(§2) Study Design and Results. This study used sixty female young adult (10-11 weeks at study initiation) C57BL/6J mice sourced from Envigo RMS (Israel), Ltd. The animals were divided into five experimental groups:
Each group received a dose volume of 5 ml/kg, and the regimen was performed daily from day 0 to 22 of the study, QD. On study day 21, half of the animals in each group was treated and tested for electrophysiology and electromyography (EMG) two hours post dosing. On study day 22, the same was performed with the remaining half of the animals in each group.
(§3) FIG. 1 provides a representation of the study. Following baseline measurements, the MOG murine model begins with a sensitization period induced by the single subcutaneous (SC) injection of MOG emulsified in Complete Freund's adjuvant (CFA) on Study Day 0, followed by intraperitoneal (IP) supplemental immunostimulation with pertussis toxin (PT) carried out once at the day of EAE induction (study day 0) and once again 48 hours later (on study day 2). […] Mechanical allodynia was tested using the Von Frey test at Baseline and on Day 9 at various timepoints. For evaluation of spasticity, transcranial motor-evoked potentials (tcMEPs) were tested at Baseline and on Days 9 and 21-22 (half of the animals on each day). All animals were administered treatment once daily, starting on Day 0 until Day 22. Animals in Group 1 received oral (PO) treatment with the vehicle. Animals in Group 2 were treated with Fingolimod (FTY720; positive control) at a dose level of 3 mg/kg. PO. Animals in Groups 3 and 4 were treated with the test item Compound 1 at a dose level of 10 mg/kg or 3 mg/kg, PO, respectively. Animals in Group 5 were treated with Tizanidine at a dose level of 1 mg/kg, IP.
Electrophysiology: The animals were subjected to electrophysiology testing at Baseline and Days 10 and 21 of the study. The EMG, latency, latency to main event, duration, peak-to-peak (P2P) amplitude, and number of subpeaks were recorded.

For test [3] the test system is unchanged. Put plainly: Mechanical allodynia evaluation (Von Frey testing) in EAE model. To be noted: Day 9; for withdrawal force threshold (Von Frey): 10 mg/kg PO. It counts as in vivo, C57BL/6J mice. How it is done: as §1, §2, §3
Mechanical Allodynia Evaluation (Von Frey Testing): Animals were tested for mechanical allodynia using the Von Frey test at Baseline, and then on Day 9 at 0.5 hours ([…]), 1.5 hours, 3.5 hours (all groups) and 5.5 hours (Groups 1-4 only) post-dose.

Where [4] appears, read: both dose levels (10 and 3 mg/kg PO QD).

As to `CC(C)C[C@](C)(N)COc1ccc(-c2ccnc(C(F)F)c2)nc1C(F)F` [Compound 1, (S)-1-((2′,6-bis(difluoromethyl)-[2,4′-bipyridin]-5-yl)oxy)-2,4-dimethylpentan-2-amine], the “onset of action (muscle spasms)” value in test [1] (single P.O. 3 mg/kg), in test [1] (single P.O. 10 mg/kg) and in test [1] (single P.O. 30 mg/kg) was 1 h in each case. For the same compound, the “duration of action (muscle spasms)” value is 5 h in test [1] (single P.O. 3 mg/kg), 3 h in test [1] (single P.O. 10 mg/kg) and 5 h in test [1] (single P.O. 30 mg/kg). Further, in test [1] (single P.O., all tested dosages (3, 10, 30 mg/kg), n=10), the “muscle spasms (AUC)” value is “significantly reduced”. In addition, the latency in test [2] (3 mg/kg PO QD, Day 10) stood at 5.31 ± 0.21 ms; in test [2] (10 mg/kg PO QD, Day 10), 5.54 ± 0.22 ms. Besides, the “latency until reaching the main event” value in test [2] (3 mg/kg PO QD, Day 10, vehicle 10.05±2.59 ms) is 5.32 ± 0.22 ms. For the same compound, the “peak-to-peak (P2P) amplitude” value stood at 11321.67±1321.68 μV in test [2] (3 mg/kg PO QD, Day 10) and 11613.75±1154.41 μV in test [2] (10 mg/kg PO QD, Day 10). Also, the “rate of fibrillation (EMG)” value is 0.38±0.38 Hz in test [2] (3 mg/kg PO QD) and 1.22±0.57 Hz in test [2] (10 mg/kg PO QD). For the same compound, the “duration compared to vehicle treated animals” value in test [2] (setting [4]) is on record as “reduced”. Further, the “number of sub potentials compared to vehicle treated animals” value in test [2] (setting [4]) was “reduced”. In test [3] (3 mg/kg PO, all timepoints post dosing), the “withdrawal force threshold compared to the vehicle-treated group” value was “higher withdrawal force threshold compared to the vehicle-treated group”. The “withdrawal force threshold (Von Frey)” value in test [3] (1.5 hours post dosing, vehicle 0.89±0.11 g) is 1.48 ± 0.10 g; in test [3] (3.5 hours post dosing, vehicle 0.78±0.06 g) it was 1.36 ± 0.09 g; in test [3] (5.5 hours post dosing, vehicle 0.82±0.08 g), 1.52 ± 0.13 g.
